{"source": "patent US20240374609A1", "about": "“NITROSAMINE IMPURITY, VARENICLINE PHARMACEUTICAL COMPOSITION CAPABLE OF REDUCING GENERATION OF NITROSAMINE IMPURITIES AND PREPARATION AND USE THEREOF” (VIWIT PHARMACEUTICALCO., LTD., priority 2021, published 2024)", "key": {"[1]": {"test_system": "Salmonella Typhimurium TA1535", "assay_type": "cell-based", "settings": "positive control", "procedure": "(§1) Salmonella Typhimurium TA97a, TA98, TA100, TA102, and TA1535 from MOLT OX, USA, were purchased from Shanghai Bioplus Biotech. Co., Ltd. The test was carried out using Salmonella typhimurium strains that were identified as meeting the requirements.\n(§2) Rat liver S9 from Shanghai Bioplus Biotech. Co., Ltd.\n(§3) The experiments were performed using the plate incorporation method.\n(§4) Dose selection: The experiments were performed using 5 mg, 2.5 mg, 1.25 mg, 0.625 mg, 0.3125 mg, and 0.15625 mg per dish.\n(§5) Test substance preparation: nitrosamine impurity compound P08 was prepared to a solution of 50 mg/ml with dimethyl-sulfoxide, and diluted with dimethyl-sulfoxide to give the solutions of 25 mg/ml, 12.5 mg/ml, 6.25 mg/ml, 3.125 mg/ml, and 1.5625 mg/ml successively.\n(§6) 0.1 ml of frozen bacterial solutions TA97a, TA98, TA100, TA102 and TA1535 were inoculated into the 10 ml nutrient broth mediums respectively, and cultured at 37° C. (100/min) for 10 h with shaking (100 times/min). 2.0 ml of top layer medium containing 0.5 mmol/L histidine −0.5 mmol/L biotin was dispensed into test tubes, sterilized by 0.103 MPa for 20 min, and kept in a water bath at 50° C. Then, 0.1 ml of the test substance solution, 0.5 ml of the S9 mixture (when metabolic activation was required) and 0.1 ml of the bacterial solution were added into each tube successively, mixed sufficiently, and poured into the bottom layer agar plates quickly. Then, the plates were turned to distribute even. After being placed horizontally for condensation and solidification, the plates were inverted and incubated in an incubator at 37° C. for 48 h, and the number of reverse mutation colonies per dish was counted. Three parallel plates of each dose were made, containing the spontaneous reverse mutation group, the solvent control group and the positive control group.\n(§7) The data were expressed as means±standards deviation (x±s), and SPSS 19.0 was used for calculation of data analysis.\n(§8) If the test substance tested by the above test strain is negative both with and without S9, then the test substance is determined to be mutagenic negative."}, "[2]": {"test_system": "Salmonella Typhimurium TA102", "assay": "Ames test, plate incorporation method, TA102", "assay_type": "cell-based", "settings": "positive control", "procedure": "as §1, §2, §3, §4, §5, §6, §7, §8"}, "[3]": {"test_system": "Salmonella Typhimurium TA100", "assay": "Ames test, plate incorporation method, TA100", "assay_type": "cell-based", "settings": "positive control, TA100, −S9, 1 μl/dish", "procedure": "(§9) Salmonella Typhimurium TA97a, TA98, TA100, TA102, and TA1535 from MOLT OX, USA, were purchased from Shanghai Bioplus Biotech.\nas §2, §3, §4, §6, §7, §8"}, "[4]": {"assay": "Content of nitrosamine impurity P08 in varenicline tartrate tablets, initial and at high temperature (HPLC Q-Exactive-MS/MS)", "assay_type": "physicochemical", "procedure": "After ultrasound for 5 min, the pH of the dispersion was measured. The content of the nitrosamine impurity P08 in the varenicline tartrate tablets were measured by HPLC Q-Exactive-MS/MS (Vanquish HPLC Q-Exactive-MS/MS).\nWherein, • “API” (Active Pharmaceutical Ingredient) refers to the API of varenicline tartrate. • “Initial” refers to the immediate measurement after the preparation of the varenicline tartrate tablet. • “Measurement at high-temperature” refers to the measurement after keeping at 60° C. of the prepared varenicline tartrate tablet for a period of time (see “Chinese Pharmacopoeia”). • Symbol * refers to the liquid sample after adjusting the pH value, and the liquid sample is tested. • Symbol # refers to the liquid sample after adjusting the pH value which is subjected to a high temperature test, and then the liquid sample is tested.\nMethodologically validated HPLC Q-Exactive-MS/MS (Vanquish HPLC Q-Exactive-MS/MS) was used for the qualitative and/or quantitative determination of nitrosamine impurity P08 in varenicline tartrate tablets. The measurement results are shown in Example 4.\nSample solution: 10 varenicline tartrate tablets were placed in a 10 ml volumetric flask, added with 3 mL of purified water and 3 mL of acetonitrile, sonicated for 30s, then diluted with acetonitrile to volume and mixed evenly.\nC (ppm)=the concentration (ng/ml) of P08 in the sample solution/the concentration (mg/ml) of varenicline tartrate in the sample solution."}, "[5]": {"test_system": "Salmonella Typhimurium TA97a", "assay": "Ames test, plate incorporation method, TA97a", "assay_type": "cell-based", "settings": "positive control, −S9, 50 μg/dish", "procedure": "as §9, §2, §3, §4, §6, §7, §8"}, "[6]": {"test_system": "Salmonella Typhimurium TA98", "assay": "Ames test, plate incorporation method, TA98", "assay_type": "cell-based", "settings": "positive control, TA98, −S9, 50 μg/dish", "procedure": "as §9, §2, §3, §4, §6, §7, §8"}}, "note": "Where two headings read alike, the source gives them in different places."}
{"compound": "[N-]=[N+]=[N-]", "note": "[Sodium azide, sodium azide, reference compound]", "values": [{"measurement": "number of reverse mutation colonies per dish (x ± s)", "setting": "[1]; TA1535, −S9, 1.5 μg/dish", "result": "570 ± 46"}]}
{"compound": "COS(C)(=O)=O", "note": "[Methyl methanesulfonate, methyl methanesulfonate, reference compound]", "values": [{"measurement": "number of reverse mutation colonies per dish (x ± s)", "setting": "[2]; TA102, −S9, 1 μl/dish", "result": "2418 ± 257"}, {"measurement": "number of reverse mutation colonies per dish (x ± s)", "setting": "[3]", "result": "1596 ± 71"}]}
{"compound": "O=C1c2cccc(O)c2C(=O)c2c(O)cccc21", "note": "[1,8-dihydroxyanthraquinone, reference compound]", "values": [{"measurement": "number of reverse mutation colonies per dish (x ± s)", "setting": "[2]; TA102, +S9, 50 μg/dish", "result": "921 ± 32"}]}
{"compound": "varenicline tartrate [API]", "values": [{"measurement": "P08 in API", "setting": "[4]; API of varenicline tartrate used for blue coating tablets", "result": 0.511, "unit": "ppm"}, {"measurement": "P08 in API", "setting": "[4]; API of varenicline tartrate used for core tablets", "result": 0.511, "unit": "ppm"}, {"measurement": "P08 in API", "setting": "[4]; API of varenicline tartrate used for white coating tablets", "result": 0.511, "unit": "ppm"}]}
{"compound": "CN(C)c1ccc(N=NS(=O)(=O)[O-])cc1.[Na+]", "note": "[Dexon, reference compound]", "values": [{"measurement": "number of reverse mutation colonies per dish (x ± s)", "setting": "[5]", "result": "1294 ± 64"}, {"measurement": "number of reverse mutation colonies per dish (x ± s)", "setting": "[6]", "result": "691 ± 43"}]}
{"compound": "O=P1(N(CCCl)CCCl)NCCCO1", "note": "(stereo not shown) [Cyclophosphamide, cyclophosphamide, reference compound]", "values": [{"measurement": "number of reverse mutation colonies per dish (x ± s)", "setting": "[1]; TA1535, +S9, 200 μg/dish", "result": "171 ± 11"}]}
